Reference: ChEMBL document CHEMBL3297680, “Pharmacophore based virtual screening, molecular docking and biological evaluation to identify novel PDE5 inhibitors with vasodilatory activity” (Bioorg Med Chem Lett, 2014)

Tested on: Aorta
Assay: Vasodilatory activity in phenylephrine-induced pre-contracted Wistar rat aortic ring assessed as relaxation at 10 '-5 M
Format: functional
Design: scale not given: the % may be the effect or the level left

Q: For `CCOC(=O)c1cnc2nc(N)ccc2c1O`, which Activity is on record?
A: Its Activity is 50%.

Q: `CCCc1nn(C)c2c(=O)[nH]c(-c3cc(S(=O)(=O)N4CCN(C)CC4)ccc3OCC)nc12` was tested. Which Activity did it give?
A: The Activity was 50%.

Q: How did the Activity turn out when `CCCCC(=O)c1cc(OC)cc(OC)c1` was run?
A: The Activity was 50%.

Tested on: Aorta
Assay: Vasodilatory activity in phenylephrine-induced pre-contracted Wistar rat aortic ring assessed as relaxation at 10 '-6 M
Format: functional
Design: scale not given: the % may be the effect or the level left

Q: For `CCCCC(=O)c1cc(OC)cc(OC)c1`, which Activity is on record?
A: The Activity was 50%.

Tested on: Aorta
Assay: Vasodilatory activity in phenylephrine-induced pre-contracted Wistar rat aortic ring assessed as relaxation at 10 '-2 M
Format: functional
Design: scale not given: the % may be the effect or the level left

Q: `CCOC(=O)c1cnc2nc(N)ccc2c1O` was tested. Which Activity did it give?
A: The Activity was 50%.

Q: `CCCc1nn(C)c2c(=O)[nH]c(-c3cc(S(=O)(=O)N4CCN(C)CC4)ccc3OCC)nc12` was tested. Which Activity did it give?
A: Its Activity is 50%.

Q: For `CCCCC(=O)c1cc(OC)cc(OC)c1`, which Activity is on record?
A: The Activity was 50%.

Molecular target: cGMP-specific 3',5'-cyclic phosphodiesterase (Homo sapiens, UniProt O76074)
Assay: Inhibition of PDE5 (unknown origin)

Q: With `Cc1nc2c([nH]1)C(=O)N(C)C1=N[C@@H]3CCC[C@@H]3N12` as the compound, how does the IC50 read?
A: Its IC50 is 2400 nM.

Q: How did the IC50 turn out when `CC(C)CCc1nc2c([nH]1)C(=O)N(C)C1=N[C@@H]3CCC[C@@H]3N12` was run?
A: Its IC50 is 50 nM.

Q: Which IC50 does the source give for `CN1C(=O)c2[nH]c(C(F)(F)F)nc2N2C1=N[C@@H]1CCC[C@@H]12` here?
A: Its IC50 is 6200 nM.

Q: Which IC50 does the source give for `Cc1nc2c([nH]1)C(=O)N(C(C)C)C1=N[C@@H]3CCC[C@@H]3N12` here?
A: The IC50 was 240 nM.

Q: With `CN1C(=O)c2c(nc(C#Cc3ccccc3)n2Cc2ccccc2)N2C1=N[C@@H]1CCC[C@@H]12` as the compound, how does the IC50 read?
A: The IC50 was 4 nM.

Q: Which IC50 does the source give for `CN1C(=O)c2c(nc(Cc3ccccc3)n2Cc2cccc(O)c2O)N2C1=N[C@@H]1CCC[C@@H]12` here?
A: Its IC50 is 200 nM.

Q: Which IC50 does the source give for `CN1C(=O)c2c(nc(-c3ccccc3)n2Cc2ccccc2)N2CC3(CCCC3)N=C12` here?
A: The IC50 was 11 nM.

Q: `CCN1C(=O)c2[nH]c(C)nc2N2C1=N[C@@H]1CCC[C@@H]12` was tested. Which IC50 did it give?
A: Its IC50 is 100 nM.

Q: For `CN1C(=O)c2[nH]c(Cc3ncc[nH]3)nc2N2C1=N[C@@H]1CCC[C@@H]12`, which IC50 is on record?
A: The IC50 was 26000 nM.

Q: For `CN1C(=O)c2c(nc(Cc3ccc(-c4ccccc4)cc3)n2Cc2ccccc2)N2C1=N[C@@H]1CCC[C@@H]12`, which IC50 is on record?
A: The IC50 was 305 nM.

Q: How did the IC50 turn out when `Cc1nc2c(n1Cc1ccccc1)N1CC3(CCCC3)N=C1N(C)C2=O` was run?
A: The IC50 was 2900 nM.

Q: Which IC50 does the source give for `CN1C(=O)c2[nH]c(CN3CCCC3)nc2N2C1=N[C@@H]1CCC[C@@H]12` here?
A: The IC50 was 16000 nM.

Q: For `CN1C(=O)c2c(nc(CC3CCCC3)n2Cc2ccccc2)N2CC3(CCCC3)N=C12`, which IC50 is on record?
A: Its IC50 is 120 nM.

Q: Which IC50 does the source give for `CN1C(=O)c2[nH]c(CC3CCCCC3)nc2N2C1=N[C@@H]1CCC[C@@H]12` here?
A: Its IC50 is 19 nM.

Q: How did the IC50 turn out when `Cc1nc2c(n1Cc1ccccc1)C(=O)N(C)C1=N[C@@H]3CCC[C@@H]3N12` was run?
A: The IC50 was 225 nM.

Q: How did the IC50 turn out when `CN1C(=O)c2c(nc(Cc3ccc(-c4ccccc4)cc3)n2Cc2ccccc2)N2CC3(CCCC3)N=C12` was run?
A: The IC50 was 200 nM.

Q: Which IC50 does the source give for `CN1C(=O)c2c(nc(Cc3ccccc3)n2Cc2ccccc2)N2CC3(CCCC3)N=C12` here?
A: The IC50 was 120 nM.

Q: For `CN1C(=O)c2c(nc(Cc3ccccc3)n2Cc2cccnc2)N2C1=N[C@@H]1CCC[C@@H]12`, which IC50 is on record?
A: Its IC50 is 4300 nM.

Q: `CN1C(=O)c2[nH]c(CC3CCCC3)nc2N2CC3(CCCC3)N=C12` was tested. Which IC50 did it give?
A: The IC50 was 26 nM.

Q: How did the IC50 turn out when `CN1C(=O)c2[nH]c(CC3CC3)nc2N2C1=N[C@@H]1CCC[C@@H]12` was run?
A: The IC50 was 610 nM.

Q: `CN1C(=O)c2[nH]c(CC3CCCC3)nc2N2C1=N[C@@H]1CCC[C@@H]12` was tested. Which IC50 did it give?
A: Its IC50 is 34 nM.

Q: For `CN1C(=O)c2c(nc(Cc3ncc[nH]3)n2Cc2ccccc2)N2C1=N[C@@H]1CCC[C@@H]12`, which IC50 is on record?
A: The IC50 was 1500 nM.

Q: How did the IC50 turn out when `CCCCCCc1nc2c(n1Cc1ccccc1)C(=O)N(C)C1=N[C@@H]3CCC[C@@H]3N12` was run?
A: The IC50 was 800 nM.

Q: `CN(C)Cc1nc2c(n1Cc1ccccc1)C(=O)N(C)C1=N[C@@H]3CCC[C@@H]3N12` was tested. Which IC50 did it give?
A: The IC50 was 5600 nM.

Q: `CN1C(=O)c2c(nc(C(F)(F)F)n2Cc2ccccc2)N2C1=N[C@@H]1CCC[C@@H]12` was tested. Which IC50 did it give?
A: Its IC50 is 400 nM.

Q: For `CCCc1nc2c([nH]1)N1C(=N[C@@H]3CCC[C@@H]31)N(C)C2=O`, which IC50 is on record?
A: The IC50 was 800 nM.

Q: Which IC50 does the source give for `CN1C(=O)c2[nH]c(Cc3ccc(-c4ccccc4)cc3)nc2N2CC3(CCCC3)N=C12` here?
A: Its IC50 is 43 nM.

Q: For `CN1C(=O)c2c(nc(Cc3ccccc3)n2CCO)N2C1=N[C@@H]1CCC[C@@H]12`, which IC50 is on record?
A: Its IC50 is 10000 nM.

Q: How did the IC50 turn out when `COCc1nc2c([nH]1)N1C(=N[C@@H]3CCC[C@@H]31)N(C)C2=O` was run?
A: Its IC50 is 13000 nM.

Q: `CN1C(=O)c2c(nc(Cc3ccccc3)n2CC2CCCCC2)N2C1=N[C@@H]1CCC[C@@H]12` was tested. Which IC50 did it give?
A: Its IC50 is 110 nM.

Q: For `CN1C(=O)c2c(nc(Cc3ccccc3)n2Cc2ccccc2)N2C1=N[C@@H]1CCC[C@@H]12`, which IC50 is on record?
A: The IC50 was 180 nM.

Q: With `CN1C(=O)c2[nH]c(C#Cc3ccccc3)nc2N2C1=N[C@@H]1CCC[C@@H]12` as the compound, how does the IC50 read?
A: The IC50 was 6000 nM.

Q: `CN1C(=O)c2[nH]c(Cc3ccc(-c4ccccc4)cc3)nc2N2C1=N[C@@H]1CCC[C@@H]12` was tested. Which IC50 did it give?
A: The IC50 was 66 nM.

Q: For `CN1C(=O)c2c(nc(CC3CCCCC3)n2Cc2ccccc2)N2C1=N[C@@H]1CCC[C@@H]12`, which IC50 is on record?
A: Its IC50 is 590 nM.

Q: With `CN1C(=O)c2[nH]c(-c3ccccc3)nc2N2CC3(CCCC3)N=C12` as the compound, how does the IC50 read?
A: Its IC50 is 3300 nM.

Q: `CCCc1nc2c(n1Cc1ccccc1)C(=O)N(C)C1=N[C@@H]3CCC[C@@H]3N12` was tested. Which IC50 did it give?
A: The IC50 was 510 nM.

Q: Which IC50 does the source give for `CN1C(=O)c2c(nc(CC3CCCC3)n2Cc2ccccc2)N2C1=N[C@@H]1CCC[C@@H]12` here?
A: Its IC50 is 275 nM.

Q: For `CN1C(=O)c2c(nc(Cc3ccccc3)n2C)N2CC3(CCCC3)N=C12`, which IC50 is on record?
A: The IC50 was 4500 nM.

Q: With `CCCCCCc1nc2c([nH]1)C(=O)N(C)C1=N[C@@H]3CCC[C@@H]3N12` as the compound, how does the IC50 read?
A: The IC50 was 10 nM.

Q: For `CN1C(=O)c2c(nc(CN3CCCC3)n2Cc2ccccc2)N2C1=N[C@@H]1CCC[C@@H]12`, which IC50 is on record?
A: The IC50 was 1200 nM.

Q: Which IC50 does the source give for `CN1C(=O)c2c(nc(CC3CC3)n2Cc2ccccc2)N2C1=N[C@@H]1CCC[C@@H]12` here?
A: The IC50 was 420 nM.

Q: For `CC(C)CCc1nc2c(n1Cc1ccccc1)C(=O)N(C)C1=N[C@@H]3CCC[C@@H]3N12`, which IC50 is on record?
A: Its IC50 is 560 nM.

Q: With `COCc1nc2c(n1Cc1ccccc1)C(=O)N(C)C1=N[C@@H]3CCC[C@@H]3N12` as the compound, how does the IC50 read?
A: The IC50 was 1000 nM.

Q: For `CN1C(=O)c2c(nc(Cc3ccccc3)n2Cc2ncc[nH]2)N2C1=N[C@@H]1CCC[C@@H]12`, which IC50 is on record?
A: The IC50 was 4000 nM.

Q: Which IC50 does the source give for `CN1C(=O)c2[nH]c(Cc3ccccc3)nc2N2CC3(CCCC3)N=C12` here?
A: Its IC50 is 19 nM.

Tested on: Aorta
Assay: Vasodilatory activity in phenylephrine-induced pre-contracted Wistar rat aortic ring assessed as relaxation at 10 '-4 M
Format: functional
Design: scale not given: the % may be the effect or the level left

Q: With `CC(CC/N=C/c1ccccc1O)/N=C/c1ccccc1O` (centres undefined) as the compound, how does the Activity read?
A: The Activity was 50%.

Q: With `CCCCC(=O)c1cc(OC)cc(OC)c1` as the compound, how does the Activity read?
A: The Activity was 50%.
